Source: patent US20170275275A1, “BENZENESULFONAMIDES USEFUL AS SODIUM CHANNEL INHIBITORS” (PFIZER INC., priority 2014, published 2017)
Values after ≈ are worked out from the molar mass of the structure shown. Where a name gives a salt, the structure may show the parent alone.

Assays:
[1] = Aqueous solubility, shake-flask method; format: physicochemical; conditions: aqueous buffer, thermodynamic from solid
Experimental: Aqueous solubility data were generated via a “shake-flask” method where an excess of compound was added to a buffer (typically phosphate buffered saline at pH 7.4) and shaken for a period of 18 hours at room temperature. After this time any excess solid was removed by double centrifugation to obtain a saturated aqueous solution. The amount of compound solubilised was quantified by HPLC-UV or LC-MS against a standard calibration curve.
The solubility data generated are set out below. Where a greater than figure is quoted, all available compound was solubilised and saturation was not achieved in the conditions employed.

[2] = molecular target: T1, Nav1.7 (or SCN9A) channel (Homo sapiens, UniProt Q15858); assay: Nav1.7 (hSCN9A) channel block, PatchXpress (PX) whole-cell electrophysiology in stably transfected HEK cells; format: cell-based; conditions: for IC50: estimated IC50 from single point electrophysiology data, PatchXpress platform, HEK cells expressing hSCN9A, clamped at V1/2 of inactivation, read-out: Nav1.7 EIC50
T1 construct: expressed in transfected cells
T1 sequence (Q15858 whole entry): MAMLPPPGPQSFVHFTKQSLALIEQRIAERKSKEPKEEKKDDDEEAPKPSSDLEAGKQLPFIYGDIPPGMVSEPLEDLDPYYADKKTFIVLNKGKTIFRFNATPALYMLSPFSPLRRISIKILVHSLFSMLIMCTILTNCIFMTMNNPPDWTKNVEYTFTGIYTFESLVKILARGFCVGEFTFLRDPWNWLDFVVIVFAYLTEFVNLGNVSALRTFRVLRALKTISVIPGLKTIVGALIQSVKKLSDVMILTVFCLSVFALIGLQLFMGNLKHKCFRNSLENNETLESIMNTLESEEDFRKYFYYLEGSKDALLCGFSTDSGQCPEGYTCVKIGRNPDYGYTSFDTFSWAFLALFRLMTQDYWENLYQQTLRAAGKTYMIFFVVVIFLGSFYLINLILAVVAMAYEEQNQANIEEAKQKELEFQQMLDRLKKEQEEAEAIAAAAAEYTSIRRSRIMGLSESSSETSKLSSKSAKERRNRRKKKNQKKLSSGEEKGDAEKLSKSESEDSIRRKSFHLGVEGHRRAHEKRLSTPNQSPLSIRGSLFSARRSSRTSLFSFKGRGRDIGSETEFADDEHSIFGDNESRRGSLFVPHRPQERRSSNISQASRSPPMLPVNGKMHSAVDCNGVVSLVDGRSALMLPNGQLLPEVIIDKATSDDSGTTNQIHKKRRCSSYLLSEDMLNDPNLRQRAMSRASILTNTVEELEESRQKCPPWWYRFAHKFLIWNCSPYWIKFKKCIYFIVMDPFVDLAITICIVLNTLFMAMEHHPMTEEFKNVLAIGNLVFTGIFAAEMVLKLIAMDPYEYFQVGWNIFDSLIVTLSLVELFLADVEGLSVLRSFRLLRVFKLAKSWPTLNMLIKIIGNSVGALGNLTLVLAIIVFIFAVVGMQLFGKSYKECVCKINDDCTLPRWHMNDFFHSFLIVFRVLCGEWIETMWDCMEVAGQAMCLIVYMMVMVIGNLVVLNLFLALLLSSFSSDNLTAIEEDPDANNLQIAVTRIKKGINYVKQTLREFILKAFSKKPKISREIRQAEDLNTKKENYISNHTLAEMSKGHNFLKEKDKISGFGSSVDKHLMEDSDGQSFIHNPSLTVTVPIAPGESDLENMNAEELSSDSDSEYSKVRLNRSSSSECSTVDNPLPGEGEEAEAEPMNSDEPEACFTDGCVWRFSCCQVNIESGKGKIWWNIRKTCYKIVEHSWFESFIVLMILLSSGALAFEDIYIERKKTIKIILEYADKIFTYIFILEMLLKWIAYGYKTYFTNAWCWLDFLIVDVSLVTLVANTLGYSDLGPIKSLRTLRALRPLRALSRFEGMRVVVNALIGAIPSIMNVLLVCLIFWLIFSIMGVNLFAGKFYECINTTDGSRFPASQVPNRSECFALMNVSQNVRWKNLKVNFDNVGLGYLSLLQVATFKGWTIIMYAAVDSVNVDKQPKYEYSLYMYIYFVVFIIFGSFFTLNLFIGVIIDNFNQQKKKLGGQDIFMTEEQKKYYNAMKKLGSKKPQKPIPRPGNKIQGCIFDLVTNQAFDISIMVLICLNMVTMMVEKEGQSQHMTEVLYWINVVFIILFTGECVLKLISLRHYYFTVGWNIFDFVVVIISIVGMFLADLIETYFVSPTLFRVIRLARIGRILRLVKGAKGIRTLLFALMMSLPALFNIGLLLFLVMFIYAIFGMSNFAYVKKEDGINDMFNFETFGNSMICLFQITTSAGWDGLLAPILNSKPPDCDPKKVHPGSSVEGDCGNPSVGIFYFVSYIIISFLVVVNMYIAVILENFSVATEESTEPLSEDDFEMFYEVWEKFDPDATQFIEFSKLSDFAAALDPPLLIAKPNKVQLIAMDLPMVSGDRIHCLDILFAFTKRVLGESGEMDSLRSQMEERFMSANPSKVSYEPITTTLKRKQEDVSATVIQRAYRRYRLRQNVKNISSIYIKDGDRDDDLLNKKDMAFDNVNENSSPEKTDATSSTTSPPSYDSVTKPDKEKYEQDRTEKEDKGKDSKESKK
Experimental: The ability of the compounds of formula (I) to block the Nav1.7 (or SCN9A) channel was measured using the assay described below.
Human Embryonic Kidney (HEK) cells were transfected with an hSCN9A construct using lipofectamine reagent (Invitrogen), using standard techniques. Cells stably expressing the hSCN9A constructs were identified by their resistance to G-418 (400 μg/ml). Clones were screened for expression using the whole-cell voltage-clamp technique.
HEK cells stably transfected with hSCN9A were maintained in DMEM medium supplemented with 10% heat-inactivated fetal bovine serum and 400 μg/ml G-418 in an incubator at 37° C. with a humidified atmosphere of 10% CO2. For HTS, cells were harvested from flasks by trypsinization and replated in an appropriate multi-well plate (typically 96 or 384 wells/plate) such that confluence would be achieved within 24 hours of plating. Cells were typically used for electrophysiological experiments within 24 to 72 hours after plating.
For conventional whole-cell voltage clamp experiments cells were removed from the culture flask by brief trypsinization and re-plated at low density onto glass cover slips. Cover slips containing HEK cells expressing hSCN9A were placed in a bath on the stage of an inverted microscope and perfused (approximately 1 ml/minutes) with extracellular solution of the following composition: 138 mM NaCl, 2 mM CaCl2, 5.4 mM KCl, 1 mM MgCl2, 10 mM glucose, and 10 mM HEPES, pH 7.4, with NaOH. […] The osmolarity of the extracellular and intracellular solutions was 300 mOsm/kg and 295 mOsm/kg, respectively. All recordings were made at room temperature (22-24° C.) using AXOPATCH 200B amplifiers and PCLAMP software (Axon Instruments, Burlingame, Calif.). hSCN9A currents in HEK cells were measured using the whole-cell configuration of the patch-clamp technique (Hamill et al., 1981). Uncompensated series resistance was typically 2 to 5 mega ohms and >85% series resistance compensation was routinely achieved. […] Current records were acquired at 20 to 50 KHz and filtered at 5 to 10 KHz.
HEK cells stably transfected with hSCN9A were viewed under Hoffman contrast optics and placed in front of an array of flow pipes emitting either control or compound-containing extracellular solutions.
The voltage-dependence of inactivation was determined by applying a series of depolarizing prepulses (8 sec long in 10 mV increments) from a negative holding potential. The voltage was then immediately stepped to 0 mV to assess the magnitude of the sodium current. Currents elicited at 0 mV were plotted as a function of prepulse potential to allow estimation of the voltage at which 50% of the channels were inactivated (midpoint of inactivation or V1/2). Compounds were tested for their ability to inhibit hSCN9A sodium channels by activating the channel with a 20 msec voltage step […] to 0 mV following an 8 second conditioning prepulse to the empirically determined V1/2. Compound effect (% inhibition) was determined by difference in current amplitude before and after application of test compounds. For ease of comparison, “estimated IC-50” (EIC50) values were calculated from single point electrophysiology data by the following equation, (tested concentration, nM)×(100-% inhibition/% inhibition). Inhibition values <20% and >80% were excluded from the calculation.
Electrophysiological assays were conducted with PatchXpress 7000 hardware and associated software (Molecular Devices Corp). All assay buffers and solutions were identical to those used in conventional whole-cell voltage clamp experiments described above. hSCN9A cells were grown as above to 50%-80% confluency and harvested by trypsinization. Trypsinized cells were washed and resuspended in extracellular buffer at a concentration of 1×10^6 cells/ml. The onboard liquid handling facility of the PatchXpress was used for dispensing cells and application of test compounds.

[3] = pH 7.5, shaken 18 hours at room temperature
[4] = pH 7.4, shaken 18 hours at room temperature

solubility at 18 h [1, 3] [µg/mL] | IC50 [2] [nM] | SMILES | also measured
110 (≈ 138 µM) | 1 | COCCOCCOCCOCCNCc1cc(-c2cc(-c3cccc(C(F)(F)F)c3)ccc2Oc2ccc(S(=O)(=O)Nc3ncns3)cc2C#N)ccn1 [Example 15, 4-((3-(2-(5,8,11,14-tetraoxa-2-azapentadecyl)pyridin-4-yl)-3′-(trifluoromethyl)-[1,1′-biphenyl]-4-yl)oxy)-3-cyano-N-(1,2,4-thiadiazol-5-yl)benzenesulfonamide] | 
 | < 10 | COCCOCCOCCOCCOCCOCCOCCOCCOCCOCCOCCOCCC(=O)N1CCC(CCNCc2cc(-c3cc(-c4cccc(C(F)(F)F)c4)ccc3Oc3ccc(S(=O)(=O)Nc4ncns4)cc3C#N)ccn2)CC1 [Example 17, 4-((3-(2-(((2-(1-(2,5,8,11,14,17,20,23,26,29,32,35-dodecaoxaoctatriacontan-38-oyl)piperidin-4-yl)ethyl)amino)methyl)pyridin-4-yl)-3′-(trifluoromethyl)-[1,1′-biphenyl]-4-yl)oxy)-3-cyano-N-(1,2,4-thiadiazol-5-yl)benzenesulfonamide] | solubility at 18 h [1, 4]: > 2300 µg/mL; inhibition at 0.01 µM ([2]; HEK293, Nav1.7, PatchXpress, 10 nM, read-out: % inhibition at 10 nM dose): 87.4%
56 | 7.9 | COCCOCCOCCOCCO[C@@H]1CCN(Cc2cc(-c3cc(-c4cccc(C(F)(F)F)c4)ccc3Oc3ccc(S(=O)(=O)Nc4ncns4)cc3C#N)ccn2)C1 [Example 21, (R)-4-((3-(2-((3-((2,5,8,11-tetraoxatridecan-13-yl)oxy)pyrrolidin-1-yl)methyl)pyridin-4-yl)-3′-(trifluoromethyl)-[1,1′-biphenyl]-4-yl)oxy)-3-cyano-N-(1,2,4-thiadiazol-5-yl)benzenesulfonamide trifluoroacetate salt] | 
612 (≈ 532 µM) | 2.3 | COCCOCCOCCOCCOCCOCCOCCOCCOCCOCCOCCOCCNCc1cc(-c2cc(-c3cccc(C(F)(F)F)c3)ccc2Oc2ccc(S(=O)(=O)Nc3ncns3)cc2C#N)ccn1 [Example 12, 3-cyano-4-({3-[2-(2,5,8,11,14,17,20,23,26,29,32,35-dodecaoxa-38-azanonatriacontan-39-yl)pyridin-4-yl]-3′-(trifluoromethyl)biphenyl-4-yl}oxy)-N-(1,2,4-thiadiazol-5-yl)benzenesulfonamide] | 
> 3 | 17.5 | COCCOCCOCCOCCOCCOCCOCCOCCOCCOCCOCCOCCC(=O)NCc1cc(-c2cc(-c3cccc(C(F)(F)F)c3)ccc2Oc2ccc(S(=O)(=O)Nc3ncns3)cc2C#N)ccn1 [Example 19, N-((4-(4-(4-(N-(1,2,4-thiadiazol-5-yl)sulfamoyl)-2-cyanophenoxy)-3′-(trifluoromethyl)-[1,1′-biphenyl]-3-yl)pyridin-2-yl)methyl)-2,5,8,11,14,17,20,23,26,29,32,35-dodecaoxaoctatriacontan-38-amide] | 
3 | 0.5 | N#Cc1cc(S(=O)(=O)Nc2ncns2)ccc1Oc1ccc(-c2cccc(C(F)(F)F)c2)cc1-c1ccnc(CN)c1 [Example 26, 4-({3-[2-(Aminomethyl)pyridin-4-yl]-3′-(trifluoromethyl)biphenyl-4-yl}oxy)-3-cyano-N-1,2,4-thiadiazol-5-ylbenzenesulfonamide bis-formate salt] | 
 | 13 | COCCOCCOCCOCCOCc1cc(-c2cc(-c3cccc(C(F)(F)F)c3)ccc2Oc2ccc(S(=O)(=O)Nc3ncns3)cc2C#N)ccn1 [Example 13, 3-cyano-4-({3-[2-(2,5,8,11,14-pentaoxapentadec-1-yl)pyridin-4-yl]-3′-(trifluoromethyl)biphenyl-4-yl}oxy)-N-(1,2,4-thiadiazol-5-yl)benzenesulfonamide] | 
< 500 | 2.1 | O=S(=O)(Nc1nncs1)c1cc(Cl)c(Oc2ccc(-c3cccc(C(F)(F)F)c3)cc2-c2ccnc(CNCCC3CCNCC3)c2)cc1F [Example 6, 5-Chloro-2-fluoro-4-{[3-(2-{[(2-piperidin-4-ylethyl)amino]methyl}pyridin-4-yl)-3′-(trifluoromethyl)biphenyl-4-yl]oxy}-N-1,3,4-thiadiazol-2-ylbenzenesulfonamide bis-formate salt] | solubility at 18 h ([1]; pH 5.0, shaken 18 hours at room temperature): > 2300 µg/mL
 | 0.9 | CC(=O)N1CCC(CCNCc2cccc(-c3cc(-c4ccccc4)ccc3Oc3ccc(S(=O)(=O)Nc4ncns4)cc3C#N)c2)CC1 [Example 16, 4-{[3″-({[2-(1-Acetylpiperidin-4-yl)ethyl]amino}methyl)-1,1′:3′,1″-terphenyl-4′-yl]oxy}-3-cyano-N-1,2,4-thiadiazol-5-ylbenzenesulfonamide] | 
 | 2.9 | NCc1cc(-c2cc(-c3cccc(C(F)(F)F)c3)ccc2Oc2cc(F)c(S(=O)(=O)Nc3cscn3)cc2Cl)ccn1 [Example 29, 4-({3-[2-(aminomethyl)pyridin-4-yl]-3′-(trifluoromethyl)biphenyl-4-yl}oxy)-5-chloro-2-fluoro-N-(1,3-thiazol-4-yl)benzenesulfonamide dihydrochloride salt] | solubility at 18 h ([1]; pH 7.0, shaken 18 hours at room temperature): < 0.5 µg/mL
 | 1 | N#Cc1cc(S(=O)(=O)Nc2ncns2)ccc1Oc1ccc(-c2ccccc2)cc1-c1cccc(C(=O)NCCN2CCNCC2)c1 [Example 3, 6′-{2-cyano-4-[(1,2,4-thiadiazol-5-ylamino)sulfonyl]phenoxy}-N-(2-piperazin-1-ylethyl)-1,1′:3′,1″-terphenyl-3-carboxamide] | 
 | 23.9 | COCCOCCOCCOCCOCCOCCOCCOCCOCCOCCOCCOCCC(=O)N1CCC(CCNCc2cc(-c3cc(-c4cccc(C(F)(F)F)c4)ccc3Oc3cc(F)c(S(=O)(=O)Nc4cscn4)cc3Cl)ccn2)CC1 [Example 30, 5-chloro-2-fluoro-4-{[3-{2-[({2-[1-(38-oxo-2,5,8,11,14,17,20,23,26,29,32,35-dodecaoxaoctatriacontan-38-yl)piperidin-4-yl]ethyl}amino)methyl]pyridin-4-yl}-3′-(trifluoromethyl)biphenyl-4-yl]oxy}-N-(1,3-thiazol-4-yl)benzenesulfonamide hydrochloride salt] | 
 |  | N#Cc1cc(S(=O)(=O)Nc2ncns2)ccc1Oc1ccc(-c2cccc(C(F)(F)F)c2)cc1-c1ccnc(CNCCC2CCNCC2)c1 [Example 18b, 3-Cyano-4-{[3-(2-{[(2-piperidin-4-ylethyl)amino]methyl}pyridin-4-yl)-3′-(trifluoromethyl)biphenyl-4-yl]oxy}-N-1,2,4-thiadiazol-5-ylbenzenesulfonamide trihydrochloride salt] | solubility at 18 h [1, 4]: > 10000 µg/mL
 | > 30 | O=S(=O)(Nc1cscn1)c1cc(Cl)c(Oc2ccc(-c3cccc(C(F)(F)F)c3)cc2-c2ccnc(CNCCC3CCNCC3)c2)cc1F [Example 2, 5-Chloro-2-fluoro-4-{[3-(2-{[(2-piperidin-4-ylethyl)amino]methyl}pyridin-4-yl)-3′-(trifluoromethyl)biphenyl-4-yl]oxy}-N-1,3-thiazol-4-ylbenzenesulfonamide] | inhibition at 0.03 µM ([2]; HEK293, Nav1.7, PatchXpress, 30 nM, read-out: % inhibition at 30 nM dose): 10.7%
